# Laboratory results taken from US8710065B2, “Tricyclic inhibitors of kinases” (AbbVie Inc., priority 2011, dated 2014).
# pKi: −log10 of the molar value.
# Target: T1, GST-tagged-Wee1 kinase (Homo sapiens, UniProt P30291)
# T1 construct: purchased Carnabio (Carna Biosciences) 05-177
# Experiment: Wee1 time-resolved fluorescence equilibrium binding assay (displacement of Oregon Green-labeled ATP-competitive kinase probe)
# Settings: read-out: Wee-1 inhibition (Ki)
# Experimental: Wee1 kinase was assayed using a time-resolved fluorescence equilibrium binding assay monitoring displacement of a rapidly reversible Oregon Green-labeled ATP-competitive kinase probe (N-(2-(2-(2-(4-(4-(5-chloro-4-(2-(1-hydroxycyclobutyl)thiazol-5-yl)-1H-pyrrolo[2,3-b]pyridin-2-yl)phenyl)piperazin-1-yl)ethoxy)ethoxy)ethyl)-2′,7′-difluoro-3′,6′-dihydroxy-3-oxo-3H-spiro[isobenzofuran-1,9′-xanthene]-5-carboxamide) by competitive Wee1 inhibitors.
# Table 1 depicts enzyme inhibition data (Ki) for exemplary compounds.
# T1 sequence (P30291 whole entry): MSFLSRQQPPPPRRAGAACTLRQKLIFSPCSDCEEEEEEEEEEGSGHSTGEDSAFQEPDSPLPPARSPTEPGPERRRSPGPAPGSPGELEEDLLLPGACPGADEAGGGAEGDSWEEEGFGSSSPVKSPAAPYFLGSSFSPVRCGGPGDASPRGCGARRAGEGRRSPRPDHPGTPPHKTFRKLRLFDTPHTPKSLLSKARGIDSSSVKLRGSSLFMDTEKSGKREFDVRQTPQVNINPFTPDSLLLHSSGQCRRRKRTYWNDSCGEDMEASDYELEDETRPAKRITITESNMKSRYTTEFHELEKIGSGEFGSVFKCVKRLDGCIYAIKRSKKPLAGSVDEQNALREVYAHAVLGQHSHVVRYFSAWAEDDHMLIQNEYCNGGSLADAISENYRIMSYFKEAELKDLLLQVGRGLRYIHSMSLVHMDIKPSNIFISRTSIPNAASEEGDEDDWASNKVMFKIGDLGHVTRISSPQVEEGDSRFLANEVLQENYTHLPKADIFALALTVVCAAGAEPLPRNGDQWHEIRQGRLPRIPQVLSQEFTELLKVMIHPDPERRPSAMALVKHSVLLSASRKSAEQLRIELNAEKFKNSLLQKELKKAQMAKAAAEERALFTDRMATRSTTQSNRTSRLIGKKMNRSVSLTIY
row,SMILES,pKi
1,"O=c1c2cnc(Nc3ccccc3)nc2n2ccnc2n1-c1ccccc1Cl [Example 2, 2-anilino-6-(2-chlorophenyl)imidazo[1,2-a]pyrimido[5,4-e]pyrimidin-5(6H)-one]",7.00 to 8.00
2,"O=c1c2cnc(Nc3ccncc3)nc2n2ccnc2n1-c1ccccc1Cl [Example 3, 6-(2-chlorophenyl)-2-(pyridin-4-ylamino)imidazo[1,2-a]pyrimido[5,4-e]pyrimidin-5(6H)-one]",< 7.00
3,"O=c1c2cnc(Nc3ccc4c(c3)CCCC4)nc2n2ccnc2n1-c1ccccc1Cl [Example 5, 6-(2-chlorophenyl)-2-(5,6,7,8-tetrahydronaphthalen-2-ylamino)imidazo[1,2-a]pyrimido[5,4-e]pyrimidin-5(6H)-one]",7.00 to 8.00
4,"O=c1c2cnc(Nc3ccc(C4CCCCC4)cc3)nc2n2ccnc2n1-c1ccccc1Cl [Example 7, 6-(2-chlorophenyl)-2-[(4-cyclohexylphenyl)amino]imidazo[1,2-a]pyrimido[5,4-e]pyrimidin-5(6H)-one]",7.00 to 8.00
5,"O=c1c2cnc(Nc3cccc(CN4CCCC4)c3)nc2n2ccnc2n1-c1ccccc1Cl [Example 11, 6-(2-chlorophenyl)-2-{[3-(pyrrolidin-1-ylmethyl)phenyl]amino}imidazo[1,2-a]pyrimido[5,4-e]pyrimidin-5(6H)-one]",7.00 to 8.00
6,"CN1CCN(c2ccc(Nc3ncc4c(=O)n(-c5ccccc5C(F)(F)F)c5nccn5c4n3)cc2)CC1 [Example 15, 2-{[4-(4-methylpiperazin-1-yl)phenyl]amino}-6-[2-(trifluoromethyl)phenyl]imidazo[1,2-a]pyrimido[5,4-e]pyrimidin-5(6H)-one]",7.00 to 8.00
7,"COc1ccccc1-n1c(=O)c2cnc(Nc3ccc(N4CCN(C)CC4)cc3)nc2n2ccnc12 [Example 16, 6-(2-methoxyphenyl)-2-{[4-(4-methylpiperazin-1-yl)phenyl]amino}imidazo[1,2-a]pyrimido[5,4-e]pyrimidin-5(6H)-one]",7.00 to 8.00
8,"COc1cc(N2CCN(C)CC2)ccc1Nc1ncc2c(=O)n(-c3ccccc3Cl)c3nccn3c2n1 [Example 17, 6-(2-chlorophenyl)-2-{[2-methoxy-4-(4-methylpiperazin-1-yl)phenyl]amino}imidazo[1,2-a]pyrimido[5,4-e]pyrimidin-5(6H)-one]",< 7.00
9,"CN1CCCc2ccc(Nc3ncc4c(=O)n(-c5ccccc5Cl)c5nccn5c4n3)cc21 [Example 18, 6-(2-chlorophenyl)-2-[(1-methyl-1,2,3,4-tetrahydroquinolin-7-yl)amino]imidazo[1,2-a]pyrimido[5,4-e]pyrimidin-5(6H)-one]",7.00 to 8.00
10,"O=C1COc2ccc(Nc3ncc4c(=O)n(-c5ccccc5Cl)c5nccn5c4n3)cc2N1 [Example 19, 6-(2-chlorophenyl)-2-[(3-oxo-3,4-dihydro-2H-1,4-benzoxazin-6-yl)amino]imidazo[1,2-a]pyrimido[5,4-e]pyrimidin-5(6H)-one]",7.00 to 8.00
11,"CC(C)(C)OC(=O)N1CCc2ccc(Nc3ncc4c(=O)n(-c5ccccc5Cl)c5nccn5c4n3)cc2C1 [Example 20, tert-butyl 7-{[6-(2-chlorophenyl)-5-oxo-5,6-dihydroimidazo[1,2-a]pyrimido[5,4-e]pyrimidin-2-yl]amino}-3,4-dihydroisoquinoline-2(1H)-carboxylate]",7.00 to 8.00
12,"C=CCn1c(=O)c2cnc(Nc3ccc(N4CCN(C)CC4)cc3)nc2n2ccnc12 [Example 23, 6-allyl-2-{[4-(4-methylpiperazin-1-yl)phenyl]amino}imidazo[1,2-a]pyrimido[5,4-e]pyrimidin-5(6H)-one]",< 7.00
13,"CN1CCN(c2ccc(Nc3ncc4c(=O)n(C5CCCCC5)c5nccn5c4n3)cc2)CC1 [Example 24, 6-cyclohexyl-2-{[4-(4-methylpiperazin-1-yl)phenyl]amino}imidazo[1,2-a]pyrimido[5,4-e]pyrimidin-5(6H)-one]",< 7.00
14,"Cc1cnc2n(-c3ccccc3Cl)c(=O)c3cnc(Nc4ccc(N5CCN(C)CC5)cc4)nc3n12 [Example 25, 6-(2-chlorophenyl)-9-methyl-2-{[4-(4-methylpiperazin-1-yl)phenyl]amino}imidazo[1,2-a]pyrimido[5,4-e]pyrimidin-5(6H)-one]",> 8.00
15,"CN1CCN(c2ccc(Nc3ncc4c(=O)n(-c5ccccc5Cl)c5nncn5c4n3)cc2)CC1 [Example 26, 6-(2-chlorophenyl)-2-{[4-(4-methylpiperazin-1-yl)phenyl]amino}pyrimido[5,4-e][1,2,4]triazolo[4,3-a]pyrimidin-5(6H)-one]",7.00 to 8.00
16,"Cc1nnc2n(-c3ccccc3Cl)c(=O)c3cnc(Nc4ccc(N5CCN(C)CC5)cc4)nc3n12 [Example 27, 6-(2-chlorophenyl)-9-methyl-2-{[4-(4-methylpiperazin-1-yl)phenyl]amino}pyrimido[5,4-e][1,2,4]triazolo[4,3-a]pyrimidin-5(6H)-one]",7.00 to 8.00
17,"CN1CCN(c2ccc(Nc3ncc4c(=O)n(-c5ccccc5Cl)c5nnnn5c4n3)cc2)CC1 [Example 28, 4-(2-chlorophenyl)-8-{[4-(4-methylpiperazin-1-yl)phenyl]amino}pyrimido[5,4-e]tetrazolo[1,5-a]pyrimidin-5(4H)-one]",7.00 to 8.00
18,"CC(C)N1CCN(c2ccc(Nc3ncc4c(=O)n(-c5ccccc5Cl)c5nccn5c4n3)cc2)CC1 [Example 29, 6-(2-chlorophenyl)-2-({4-[4-(propan-2-yl)piperazin-1-yl]phenyl}amino)imidazo[1,2-a]pyrimido[5,4-e]pyrimidin-5(6H)-one]",> 8.00
19,"O=c1c2cnc(Nc3ccc(N4CCN(CC5CCCCC5)CC4)cc3)nc2n2ccnc2n1-c1ccccc1Cl [Example 30, 6-(2-chlorophenyl)-2-({4-[4-(cyclohexylmethyl)piperazin-1-yl]phenyl}amino)imidazo[1,2-a]pyrimido[5,4-e]pyrimidin-5(6H)-one]",> 8.00
20,"N#Cc1cccc(CN2CCN(c3ccc(Nc4ncc5c(=O)n(-c6ccccc6Cl)c6nccn6c5n4)cc3)CC2)c1 [Example 31, 3-{[4-(4-{[6-(2-chlorophenyl)-5-oxo-5,6-dihydroimidazo[1,2-a]pyrimido[5,4-e]pyrimidin-2-yl]amino}phenyl)piperazin-1-yl]methyl}benzonitrile]",7.00 to 8.00
21,"CN1CCN(c2ccc(Nc3ncc4c(=O)n(-c5ccccc5Cl)c5nccn5c4n3)cc2Cl)CC1 [Example 32, 2-{[3-chloro-4-(4-methylpiperazin-1-yl)phenyl]amino}-6-(2-chlorophenyl)imidazo[1,2-a]pyrimido[5,4-e]pyrimidin-5(6H)-one]",> 8.00

# More lines, now with the values ahead:
row,pKi,SMILES
1,> 8.00,"CN1CCN(c2ccc(Nc3ncc4c(=O)n(-c5ccccc5Cl)c5nccn5c4n3)cc2)CC1 [Example 1, 6-(2-chlorophenyl)-2-{[4-(4-methylpiperazin-1-yl)phenyl]amino}imidazo[1,2-a]pyrimido[5,4-e]pyrimidin-5(6H)-one]"
2,> 8.00,"CN1Cc2cc(Nc3ncc4c(=O)n(-c5ccccc5Cl)c5nccn5c4n3)ccc2C2(CC2)C1 [Example 4, 6-(2-chlorophenyl)-2-[(2′-methyl-2′,3′-dihydro-1′H-spiro[cyclopropane-1,4′-isoquinolin]-7′-yl)amino]imidazo[1,2-a]pyrimido[5,4-e]pyrimidin-5(6H)-one]"
3,> 8.00,"CN1CCN(c2cccc(Nc3ncc4c(=O)n(-c5ccccc5Cl)c5nccn5c4n3)c2)CC1 [Example 6, 6-(2-chlorophenyl)-2-{[3-(4-methylpiperazin-1-yl)phenyl]amino}imidazo[1,2-a]pyrimido[5,4-e]pyrimidin-5(6H)-one]"
4,> 8.00,"O=c1c2cnc(Nc3ccc(N4CCCCC4)cc3)nc2n2ccnc2n1-c1ccccc1Cl [Example 8, 6-(2-chlorophenyl)-2-{[4-(piperidin-1-yl)phenyl]amino}imidazo[1,2-a]pyrimido[5,4-e]pyrimidin-5(6H)-one]"
5,> 8.00,"O=c1c2cnc(Nc3ccc(CN4CCCC4)cc3)nc2n2ccnc2n1-c1ccccc1Cl [Example 9, 6-(2-chlorophenyl)-2-{[4-(pyrrolidin-1-ylmethyl)phenyl]amino}imidazo[1,2-a]pyrimido[5,4-e]pyrimidin-5(6H)-one]"
6,> 8.00,"O=c1c2cnc(Nc3ccc(N4CCOCC4)cc3)nc2n2ccnc2n1-c1ccccc1Cl [Example 10, 6-(2-chlorophenyl)-2-{[4-(morpholin-4-yl)phenyl]amino}imidazo[1,2-a]pyrimido[5,4-e]pyrimidin-5(6H)-one]"
7,> 8.00,"CC(=O)N1CCc2ccc(Nc3ncc4c(=O)n(-c5ccccc5Cl)c5nccn5c4n3)cc21 [Example 12, 2-[(1-acetyl-2,3-dihydro-1H-indol-6-yl)amino]-6-(2-chlorophenyl)imidazo[1,2-a]pyrimido[5,4-e]pyrimidin-5(6H)-one]"
8,> 8.00,"CC(=O)N1CCN(c2ccc(Nc3ncc4c(=O)n(-c5ccccc5Cl)c5nccn5c4n3)cc2)CC1 [Example 13, 2-{[4-(4-acetylpiperazin-1-yl)phenyl]amino}-6-(2-chlorophenyl)imidazo[1,2-a]pyrimido[5,4-e]pyrimidin-5(6H)-one]"
9,> 8.00,"Cc1ccccc1-n1c(=O)c2cnc(Nc3ccc(N4CCN(C)CC4)cc3)nc2n2ccnc12 [Example 14, 6-(2-methylphenyl)-2-{[4-(4-methylpiperazin-1-yl)phenyl]amino}imidazo[1,2-a]pyrimido[5,4-e]pyrimidin-5(6H)-one]"
10,> 8.00,"O=c1c2cnc(Nc3ccc4c(c3)CNCC4)nc2n2ccnc2n1-c1ccccc1Cl [Example 21, 6-(2-chlorophenyl)-2-(1,2,3,4-tetrahydroisoquinolin-7-ylamino)imidazo[1,2-a]pyrimido[5,4-e]pyrimidin-5(6H)-one]"
11,> 8.00,"Cc1cc(Nc2ncc3c(=O)n(-c4ccccc4Cl)c4nccn4c3n2)ccc1N1CCN(C)CC1 [Example 22, 6-(2-chlorophenyl)-2-{[3-methyl-4-(4-methylpiperazin-1-yl)phenyl]amino}imidazo[1,2-a]pyrimido[5,4-e]pyrimidin-5(6H)-one]"
